Where two headings read alike, the source gives them in different places. *1 amine or outer side, *2 acyl side, *3 side chain or, on linkers, in order; H or OH if unused. Where a SMILES comes first, the peptide text is derived from it. Side-chain parts run from the residue outwards. [ ]: non-standard residue; d: D form. The star is where a group is joined. Isobutyryl(2-(3-CN-5-F-Ph)) = CC(C)(C(=O)*)c1cc(F)cc(C#N)c1; C20 diacid = O=C(O)CCCCCCCCCCCCCCCCCCC(=O)*; αMePhe(2-F) = C[C@](N)(Cc1ccccc1F)C(=O)O; γGlu = O=C(O)[C@H](CCC(=O)[*:2])N[*:1]; X2 = CC(C)(C(=O)*)c1cccc(F)c1; X60 = O=C(C1(c2cccnc2)CCCC1)*; X16 = FC(F)(F)c1cccc(N*)c1; X6 = CC(C)(C(=O)*)c1ccccc1; AEEA = NCCOCCOCC(=O)O; Aib = CC(C)(N)C(=O)O; CO = O=C([*:1])[*:2]; GABA = NCCCC(=O)O; βAla = NCCC(=O)O
Legend:
Assay type in all cases: cell-based
[1] = target: T1, GLP-1 receptor (Homo sapiens, UniProt P43220); experiment: HitHunter cAMP assay, GLP-1 receptor; settings: for Emax: read-out: Emax GLP-1R
[2] = target: T2, GIP receptor (Homo sapiens, UniProt P48546); experiment: HitHunter cAMP assay, GIP receptor; settings: for Emax: read-out: Emax GIP-1R
T2 sequence (P48546 22-466): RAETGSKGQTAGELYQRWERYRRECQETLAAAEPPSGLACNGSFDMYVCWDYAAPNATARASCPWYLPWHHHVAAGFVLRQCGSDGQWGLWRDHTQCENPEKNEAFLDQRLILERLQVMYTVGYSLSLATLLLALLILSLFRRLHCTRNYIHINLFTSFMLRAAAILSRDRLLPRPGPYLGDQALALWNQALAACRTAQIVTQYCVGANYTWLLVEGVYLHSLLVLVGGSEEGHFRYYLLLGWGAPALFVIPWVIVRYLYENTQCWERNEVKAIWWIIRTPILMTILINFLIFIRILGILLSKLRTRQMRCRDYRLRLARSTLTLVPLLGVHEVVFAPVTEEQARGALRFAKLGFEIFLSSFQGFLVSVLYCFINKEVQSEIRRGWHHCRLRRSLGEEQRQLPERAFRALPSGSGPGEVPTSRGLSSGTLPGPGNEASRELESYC

[3] = target: T2, GIP receptor; experiment: PathHunter β-arrestin assay, GIP receptor; design: host or cells: PathHunter CHO-K1 GIPR β-Arrestin Cell Line
[4] = target: T1, GLP-1 receptor; experiment: PathHunter β-arrestin assay, GLP-1 receptor; design: host or cells: PathHunter CHO-K1 GLP1R β-Arrestin Cell Line
[5] = CHO cells stably expressing human GLP-1 receptor, cAMP accumulation, 30 min, read-out: EC50 GLP-1R
[6] = CHO cells, cAMP, normalized to maximum signal from GLP-1 (high) and DMSO (low)
[7] = CHO cells stably expressing GIP receptor, cAMP accumulation, 30 min, read-out: EC50 GIP-1R
[8] = CHO cells, cAMP, normalized to maximum signal from GIP (high) and DMSO (low)
[9] = β-arrestin-2 recruitment, PathHunter CHO-K1 GIPR β-Arrestin Cell Line, 90 min at 37° C., normalized to GIP, read-out: GIPR β Arrestin EC50
[10] = β-arrestin-2 recruitment, PathHunter CHO-K1 GLP1R β-Arrestin Cell Line, 90 min at 37° C., normalized to GLP-1, read-out: GLP-1R β Arrestin EC50

T1 sequence (P43220 24-463): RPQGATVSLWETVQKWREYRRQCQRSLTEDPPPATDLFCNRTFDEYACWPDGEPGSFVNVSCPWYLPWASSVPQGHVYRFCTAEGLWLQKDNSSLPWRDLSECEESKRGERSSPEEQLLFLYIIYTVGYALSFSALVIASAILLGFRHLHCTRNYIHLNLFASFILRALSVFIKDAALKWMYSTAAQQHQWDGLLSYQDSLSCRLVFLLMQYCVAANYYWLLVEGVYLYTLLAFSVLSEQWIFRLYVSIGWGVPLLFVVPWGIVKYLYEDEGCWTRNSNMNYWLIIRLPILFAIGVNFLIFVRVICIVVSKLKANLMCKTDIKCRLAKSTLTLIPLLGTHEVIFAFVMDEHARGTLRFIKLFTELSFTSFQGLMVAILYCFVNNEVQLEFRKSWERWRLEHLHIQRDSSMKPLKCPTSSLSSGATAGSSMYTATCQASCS

SMILES | EC50 [1, 5] | Emax [1, 6] | EC50 [2, 7] | Emax [2, 8] | EC50 [3, 9] | EC50 [4, 10] | EC50 [1] | Emax ([1]; CHO) | EC50 [2] | Emax ([2]; CHO) | EC50 [3] | EC50 [4]
CC[C@H](C)[C@H](NC(=O)[C@H](CC(C)C)NC(=O)[C@H](Cc1c[nH]c2ccccc12)NC(=O)[C@H](CCC(N)=O)NC(=O)[C@@H](NC(=O)[C@H](Cc1ccccc1)NC(=O)[C@H](C)NC(=O)[C@H](CCCCNC(=O)COCCOCCNC(=O)COCCOCCNC(=O)CC[C@H](NC(=O)CCCCCCCCCCCCCCCCCCC(=O)O)C(=O)O)NC(=O)[C@H](CCC(N)=O)NC(=O)[C@H](C)NC(=O)[C@@H](NC(=O)[C@H](CCCCN)NC(=O)[C@H](CC(=O)O)NC(=O)[C@H](CC(C)C)NC(=O)C(C)(C)NC(=O)[C@@H](NC(=O)[C@H](CO)NC(=O)[C@H](Cc1ccc(O)cc1)NC(=O)[C@H](CC(=O)O)NC(=O)[C@H](CO)NC(=O)[C@@H](NC(=O)[C@H](Cc1ccccc1)NC(=O)[C@@H](NC(=O)CNC(=O)[C@H](CCC(=O)O)NC(=O)CCNC(=O)C(C)(C)c1cccc(F)c1)[C@@H](C)O)[C@@H](C)O)[C@@H](C)CC)[C@@H](C)CC)C(C)C)C(=O)N[C@@H](C)C(=O)NCC(=O)NCC(=O)N1CCC[C@H]1C(=O)N[C@@H](CO)C(=O)N[C@@H](CO)C(=O)NCC(=O)N[C@@H](C)C(=O)N1CCC[C@H]1C(=O)N1CCC[C@H]1C(=O)N1CCC[C@H]1C(=O)N[C@@H](CO)C(N)=O [Compound 240] ({X2-βAla}-EGTFTSDYSI[Aib]LDKIAQK([AEEA-AEEA-γGlu-C20 diacid])AFVQWLIAGGPSSGAPPPS-NH2) | < 0.1 nM | 93% | 1 to 10 nM | 95% | < 1000 nM | < 1000 nM |  |  |  |  |  | 
CC[C@H](C)[C@H](NC(=O)[C@H](CC(C)C)NC(=O)[C@H](Cc1c[nH]c2ccccc12)NC(=O)[C@H](CCC(N)=O)NC(=O)[C@@H](NC(=O)[C@H](Cc1ccccc1)NC(=O)[C@H](C)NC(=O)[C@H](CCCCNC(=O)COCCOCCNC(=O)COCCOCCNC(=O)CC[C@H](NC(=O)CCCCCCCCCCCCCCCCCCC(=O)O)C(=O)O)NC(=O)[C@H](CCC(N)=O)NC(=O)[C@H](C)NC(=O)[C@@H](NC(=O)[C@H](CCCCN)NC(=O)[C@H](CC(=O)O)NC(=O)[C@H](CC(C)C)NC(=O)C(C)(C)NC(=O)[C@@H](NC(=O)[C@H](CO)NC(=O)[C@H](Cc1ccc(O)cc1)NC(=O)[C@H](CC(=O)O)NC(=O)[C@H](CO)NC(=O)[C@@H](NC(=O)[C@H](Cc1ccccc1)NC(=O)[C@@H](NC(=O)CNC(=O)[C@H](CCC(=O)O)NC(=O)CCNC(=O)C(C)(C)c1ccccc1)[C@@H](C)O)[C@@H](C)O)[C@@H](C)CC)[C@@H](C)CC)C(C)C)C(=O)N[C@@H](C)C(=O)NCC(=O)NCC(=O)N1CCC[C@H]1C(=O)N[C@@H](CO)C(=O)N[C@@H](CO)C(=O)NCC(=O)N[C@@H](C)C(=O)N1CCC[C@H]1C(=O)N1CCC[C@H]1C(=O)N1CCC[C@H]1C(=O)N[C@@H](CO)C(N)=O [Compound 241] ({X6-βAla}-EGTFTSDYSI[Aib]LDKIAQK([AEEA-AEEA-γGlu-C20 diacid])AFVQWLIAGGPSSGAPPPS-NH2) | 0.1 to 1 nM | 95% | 1 to 10 nM | 100% | < 1000 nM | < 1000 nM |  |  |  |  |  | 
CC[C@H](C)[C@H](NC(=O)[C@H](CC(C)C)NC(=O)[C@H](Cc1c[nH]c2ccccc12)NC(=O)[C@H](CCC(N)=O)NC(=O)[C@@H](NC(=O)[C@H](Cc1ccccc1)NC(=O)[C@H](C)NC(=O)[C@H](CCCCNC(=O)COCCOCCNC(=O)COCCOCCNC(=O)CC[C@H](NC(=O)CCCCCCCCCCCCCCCCCCC(=O)O)C(=O)O)NC(=O)[C@H](CCC(N)=O)NC(=O)[C@H](C)NC(=O)[C@@H](NC(=O)[C@H](CCCCN)NC(=O)[C@H](CC(=O)O)NC(=O)[C@H](CC(C)C)NC(=O)C(C)(C)NC(=O)[C@@H](NC(=O)[C@H](CO)NC(=O)[C@H](Cc1ccc(O)cc1)NC(=O)[C@H](CC(=O)O)NC(=O)[C@H](CO)NC(=O)[C@@H](NC(=O)[C@](C)(Cc1ccccc1F)NC(=O)[C@@H](NC(=O)CNC(=O)[C@H](CCC(=O)O)NC(=O)CCNC(=O)C(C)(C)c1cc(F)cc(C#N)c1)[C@@H](C)O)[C@@H](C)O)[C@@H](C)CC)[C@@H](C)CC)C(C)C)C(=O)N[C@@H](C)C(=O)NCC(=O)NCC(=O)N1CCC[C@H]1C(=O)N[C@@H](CO)C(=O)N[C@@H](CO)C(=O)NCC(=O)N[C@@H](C)C(=O)N1CCC[C@H]1C(=O)N1CCC[C@H]1C(=O)N1CCC[C@H]1C(=O)N[C@@H](CO)C(N)=O [Compound 245] ({Isobutyryl(2-(3-CN-5-F-Ph))-βAla}-EGT[αMePhe(2-F)]TSDYSI[Aib]LDKIAQK([AEEA-AEEA-γGlu-C20 diacid])AFVQWLIAGGPSSGAPPPS-NH2) | 0.1 to 1 nM | 122% | 0.1 to 1 nM | 90% | < 1000 nM | > 1000 nM |  |  |  |  |  | 
CC[C@H](C)[C@H](NC(=O)[C@H](CC(C)C)NC(=O)[C@H](Cc1c[nH]c2ccccc12)NC(=O)[C@H](CCC(N)=O)NC(=O)[C@@H](NC(=O)[C@H](Cc1ccccc1)NC(=O)[C@H](C)NC(=O)[C@H](CCCCNC(=O)COCCOCCNC(=O)COCCOCCNC(=O)CC[C@H](NC(=O)CCCCCCCCCCCCCCCCCCC(=O)O)C(=O)O)NC(=O)[C@H](CCC(N)=O)NC(=O)[C@H](C)NC(=O)[C@@H](NC(=O)[C@H](CCCCN)NC(=O)[C@H](CC(=O)O)NC(=O)[C@H](CC(C)C)NC(=O)C(C)(C)NC(=O)[C@@H](NC(=O)[C@H](CO)NC(=O)[C@H](Cc1ccc(O)cc1)NC(=O)[C@H](CC(=O)O)NC(=O)[C@H](CO)NC(=O)[C@@H](NC(=O)[C@](C)(Cc1ccccc1F)NC(=O)[C@@H](NC(=O)CNC(=O)[C@H](CCC(=O)O)NC(=O)CCNC(=O)C1(c2cccnc2)CCCC1)[C@@H](C)O)[C@@H](C)O)[C@@H](C)CC)[C@@H](C)CC)C(C)C)C(=O)N[C@@H](C)C(=O)NCC(=O)NCC(=O)N1CCC[C@H]1C(=O)N[C@@H](CO)C(=O)N[C@@H](CO)C(=O)NCC(=O)N[C@@H](C)C(=O)N1CCC[C@H]1C(=O)N1CCC[C@H]1C(=O)N1CCC[C@H]1C(=O)N[C@@H](CO)C(N)=O [Compound 246] ({X60-βAla}-EGT[αMePhe(2-F)]TSDYSI[Aib]LDKIAQK([AEEA-AEEA-γGlu-C20 diacid])AFVQWLIAGGPSSGAPPPS-NH2) | 0.1 to 1 nM | 130% | 0.1 to 1 nM | 100% | < 1000 nM | < 1000 nM |  |  |  |  |  | 
CC[C@H](C)[C@H](NC(=O)[C@H](CC(C)C)NC(=O)[C@H](Cc1c[nH]c2ccccc12)NC(=O)[C@H](CCC(N)=O)NC(=O)[C@@H](NC(=O)[C@H](Cc1ccccc1)NC(=O)[C@H](C)NC(=O)[C@H](CCCCNC(=O)COCCOCCNC(=O)COCCOCCNC(=O)CC[C@H](NC(=O)CCCCCCCCCCCCCCCCCCC(=O)O)C(=O)O)NC(=O)[C@H](CCC(N)=O)NC(=O)[C@H](C)NC(=O)[C@@H](NC(=O)[C@H](CCCCN)NC(=O)[C@H](CC(=O)O)NC(=O)[C@H](CC(C)C)NC(=O)C(C)(C)NC(=O)[C@@H](NC(=O)[C@H](CO)NC(=O)[C@H](Cc1ccc(O)cc1)NC(=O)[C@H](CC(=O)O)NC(=O)[C@H](CO)NC(=O)[C@@H](NC(=O)[C@H](Cc1ccccc1)NC(=O)[C@@H](NC(=O)CNC(=O)[C@H](CCC(=O)O)NC(=O)CCCNC(=O)CNC(=O)Nc1cccc(C(F)(F)F)c1)[C@@H](C)O)[C@@H](C)O)[C@@H](C)CC)[C@@H](C)CC)C(C)C)C(=O)N[C@@H](C)C(=O)NCC(=O)NCC(=O)N1CCC[C@H]1C(=O)N[C@@H](CO)C(=O)N[C@@H](CO)C(=O)NCC(=O)N[C@@H](C)C(=O)N1CCC[C@H]1C(=O)N1CCC[C@H]1C(=O)N1CCC[C@H]1C(=O)N[C@@H](CO)C(N)=O [Compound 263] ({X16-CO}-G[GABA]EGTFTSDYSI[Aib]LDKIAQK([AEEA-AEEA-γGlu-C20 diacid])AFVQWLIAGGPSSGAPPPS-NH2) |  |  |  |  |  |  | 1 to 10 nM | 98% | 1 to 10 nM | 104% | > 1000 nM | > 1000 nM
